Laboratory results taken from patent US20080221086A1, “Novel Inhibitors of Glutaminyl Cyclase” (PROBIODRUG AG, priority 2006, published 2008).

Target: hQC (Homo sapiens, UniProt Q16769)
Assay: Fluorometric assay of glutaminyl cyclase (QC) inhibition, H-Gln-βNA or H-Gln-AMC substrate
Format: biochemical
Conditions: read-out: IC50
Procedure, shortened: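 Ki values were obtained by fitting progress curves to a competitive-inhibition equation, and the rapid screen used 4 mM inhibitor with substrate at 1 KM. Both readouts coupled pyroglutamyl aminopeptidase at pH 8.0 and 30° C: H-Gln-βNA at 0.2 mM (ex/em 320/410 nm) or H-Gln-AMC (380/460 nm).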

Chain of hQC (Q16769 29-361): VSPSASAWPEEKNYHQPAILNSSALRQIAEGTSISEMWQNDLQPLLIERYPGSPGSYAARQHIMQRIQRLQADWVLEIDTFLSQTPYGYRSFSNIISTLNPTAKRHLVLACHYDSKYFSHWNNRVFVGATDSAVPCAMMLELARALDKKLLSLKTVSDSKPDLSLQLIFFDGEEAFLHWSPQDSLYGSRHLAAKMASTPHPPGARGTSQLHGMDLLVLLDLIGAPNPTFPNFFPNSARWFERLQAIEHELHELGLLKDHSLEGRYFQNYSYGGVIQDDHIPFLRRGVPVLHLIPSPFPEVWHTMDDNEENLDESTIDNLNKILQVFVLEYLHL

Structure (SMILES) | IC50 [µM]
O=C1N/C(=N/Cc2ccccc2)C(c2ccccc2)N1CCCn1ccnc1 (centres unmarked) [Compound 92, 4-Benzylimino-1-(3-imidazol-1-yl-propyl)-5-phenyl-imidazolidin-2-one] | 8.5
O=C1N/C(=N/Cc2ccccc2)C(c2ccc[nH]2)N1CCCn1ccnc1 (centres unmarked) [Compound 93, 4-Benzylimino-1-(3-imidazol-1-yl-propyl)-5-(1H-pyrrol-2-yl)-imidazolidin-2-one] | 9.4
O=C1N/C(=N\Cc2ccccc2)C(c2cccc(F)c2F)N1CCCn1ccnc1 (centres unmarked) [Compound 94, 4-Benzylimino-5-(2,3-difluoro-phenyl)-1-(3-imidazol-1-yl-propyl)-imidazolidin-2-one] | 5.8
O=C1N/C(=N/Cc2ccccc2)C(c2cc(F)cc(F)c2)N1CCCn1ccnc1 (centres unmarked) [Compound 95, 4-Benzylimino-5-(3,5-difluoro-phenyl)-1-(3-imidazol-1-yl-propyl)-imidazolidin-2-one] | 5.8
O=C1N/C(=N/Cc2ccccc2)C(c2ccc(Cl)c(F)c2)N1CCCn1ccnc1 (centres unmarked) [Compound 96, 4-Benzylimino-5-(4-chloro-3-fluoro-phenyl)-1-(3-imidazol-1-yl-propyl)-imidazolidin-2-one] | 6.7
O=C1N/C(=N\Cc2ccccc2)C(c2ccccc2Cl)N1CCCn1ccnc1 (centres unmarked) [Compound 97, 4-Benzylimino-5-(2-chloro-phenyl)-1-(3-imidazol-1-yl-propyl)-imidazolidin-2-one] | 4
O=C1N/C(=N\Cc2ccccc2)C(c2ccccc2F)N1CCCn1ccnc1 (centres unmarked) [Compound 98, 4-Benzylimino-5-(2-fluoro-phenyl)-1-(3-imidazol-1-yl-propyl)-imidazolidin-2-one] | 5.8
O=C1N/C(=N/Cc2ccccc2)C(c2ccc(O)cc2)N1CCCn1ccnc1 (centres unmarked) [Compound 99, 4-Benzylimino-5-(4-hydroxy-phenyl)-1-(3-imidazol-1-yl-propyl)-imidazolidin-2-one] | 6.7
O=C1N/C(=N\c2ccc(Oc3ccccc3)cc2)C(C2CCC=CO2)N1CCCn1ccnc1 (centres unmarked) [Compound 100, 5-(3,4-Dihydro-2H-pyran-2-yl)-1-(3-imidazol-1-yl-propyl)-4-4-phenoxy-phenylimino-imidazolidin-2-one] | 4.9
O=C1N/C(=N\c2ccc(Oc3ccccc3)cc2)C(c2ccc(Cl)c(F)c2)N1CCCn1ccnc1 (centres unmarked) [Compound 101, 5-(4-Chloro-3-fluoro-phenyl)-1-(3-imidazol-1-yl-propyl)-4-4-phenoxy-phenylimino-imidazolidin-2-one] | 7.6
O=C1NC(=Nc2ccc(Oc3ccccc3)cc2)C(CO)N1CCCn1ccnc1 (centres unmarked) [Compound 102, 5-Hydroxymethyl-1-(3-imidazol-1-yl-propyl)-4-4-phenoxy-phenylimino-imidazolidin-2-one] | 8.5
CCCCC1C(=Nc2ccc(Oc3ccccc3)cc2)NC(=O)N1CCCn1ccnc1 (centres unmarked) [Compound 103, 5-Butyl-1-(3-imidazol-1-yl-propyl)-4-4-phenoxy-phenylimino-imidazolidin-2-one] | 9.4
CCCC1/C(=N\CCC(c2ccccc2)c2ccccc2)NC(=O)N1CCCn1ccnc1 (centres unmarked) [Compound 104, 4-3,3-Diphenyl-propylimino-1-(3-imidazol-1-yl-propyl)-5-propyl-imidazolidin-2-one] | 9.4
O=C1N/C(=N\CCC(c2ccccc2)c2ccccc2)C(c2ccccc2)N1CCCn1ccnc1 (centres unmarked) [Compound 105, 4-3,3-Diphenyl-propylimino-1-(3-imidazol-1-yl-propyl)-5-phenyl-imidazolidin-2-one] | 3.1
O=C1N/C(=N\CCC(c2ccccc2)c2ccccc2)C(C2CCC=CO2)N1CCCn1ccnc1 (centres unmarked) [Compound 106, 5-(3,4-Dihydro-2H-pyran-2-yl)-4-3,3-diphenyl-propylimino-1-(3-imidazol-1-yl-propyl)-imidazolidin-2-one] | 7.6
O=C1N/C(=N\CCC(c2ccccc2)c2ccccc2)C(c2cccc(F)c2F)N1CCCn1ccnc1 (centres unmarked) [Compound 107] | 6.7
O=C1N/C(=N\CCC(c2ccccc2)c2ccccc2)C(c2cc(F)cc(F)c2)N1CCCn1ccnc1 (centres unmarked) [Compound 108, 5-(3,5-Dihydro-phenyl)-4-3,3-diphenyl-propylimino-1-(3-imidazol-1-yl-propyl)-imidazolidin-2-one] | 6.7
O=C1NC(=NCCC(c2ccccc2)c2ccccc2)C(c2ccc(Cl)c(F)c2)N1CCCn1ccnc1 (centres unmarked) [Compound 109, 5-(4-Chloro-3-fluoro-phenyl)-4-3,3-diphenyl-propylimino-1-(3-imidazol-1-yl-propyl)-imidazolidin-2-one] | 7.6
O=C1N/C(=N\CCC(c2ccccc2)c2ccccc2)C(c2ccccc2Cl)N1CCCn1ccnc1 (centres unmarked) [Compound 110, 5-(2-Chloro-phenyl)-4-3,3-diphenyl-propylimino-1-(3-imidazol-1-yl-propyl)-imidazolidin-2-one] | 6.7

Structure (SMILES) | IC50 [µM]
O=C1N/C(=N/CCC(c2ccccc2)c2ccccc2)C(CO)N1CCCn1ccnc1 (centres unmarked) [Compound 111, 4-3,3-Diphenyl-propylimino-5-hydroxymethyl-1-(3-imidazol-1-yl-propyl)-imidazolidin-2-one] | 9.4
O=C1N/C(=N\CCC(c2ccccc2)c2ccccc2)C(c2ccccc2F)N1CCCn1ccnc1 (centres unmarked) [Compound 112, 4-3,3-Diphenyl-propylimino-5-(2-fluoro-phenyl)-1-(3-imidazol-1-yl-propyl)-imidazolidin-2-one] | 6.7
O=C1N/C(=N\CCC(c2ccccc2)c2ccccc2)C(c2cccc(F)c2)N1CCCn1ccnc1 (centres unmarked) [Compound 113, 4-3,3-Diphenyl-propylimino-5-(3-fluoro-phenyl)-1-(3-imidazol-1-yl-propyl)-imidazolidin-2-one] | 7.6
O=C1NC(=NCC2CCCO2)C(c2cccc(F)c2F)N1CCCn1ccnc1 (centres unmarked) [Compound 114, 5-(2,3-Difluoro-phenyl)-1-(3-imidazol-1-yl-propyl)-4-tetrahydro-furan-2-ylmethylimino-imidazolidin-2-one] | 8.5
O=C1NC(=NCC2CCCO2)C(c2cc(F)cc(F)c2)N1CCCn1ccnc1 (centres unmarked) [Compound 115, 5-(3,5-Difluoro-phenyl)-1-(3-imidazol-1-yl-propyl)-4-tetrahydro-furan-2-ylmethylimino-imidazolidin-2-one] | 7.6
C/N=C1/NC(=O)N(c2ccc3[nH]cnc3c2)C1c1ccc2[nH]ccc2c1 (centres unmarked) [Compound 116, 1-(1H-Benzoimidazol-5-yl)-5-(1H-indol-5-yl)-4-methylimino-imidazolidin-2-one] | 0.004
O=C1N/C(=N/C2CC2)C(c2ccc(Cl)c(F)c2)N1c1ccc2[nH]cnc2c1 (centres unmarked) [Compound 117, 1-(1H-Benzoimidazol-5-yl)-5-(4-chloro-3-fluoro-phenyl)-4-cyclopropylimino-imidazolidin-2-one] | 1.3
Cc1ccc(C2/C(=N/C(C)(C)CC(C)(C)C)NC(=S)N2c2ccc3nc[nH]c3c2)cc1 (centres unmarked) [Compound 118, 1-(3H-Benzoimidazol-5-yl)-4-1,1,3,3-tetramethyl-butylimino-5-p-tolyl-imidazolidine-2-thione] | 5.8
O=C(C/N=C1/NC(=O)N(c2ccc3[nH]cnc3c2)C1c1cc(Br)cs1)N1CCCCC1 (centres unmarked) [Compound 119, 1-(1H-Benzoimidazol-5-yl)-5-(4-bromo-thiophen-2-yl)-4-2-oxo-2-piperidin-1-yl-ethylimino-imidazolidin-2-one] | 6.7
Cc1ccc2c(C3/C(=N\CCCc4ccccc4)NC(=O)N3c3ccc4[nH]cnc4c3)c[nH]c2c1 (centres unmarked) [Compound 120, 1-(1H-Benzoimidazol-5-yl)-5-(6-methyl-1H-indol-3-yl)-4-3-phenyl-propylimino-imidazolidin-2-one] | 1.3
O=C1N/C(=N\C2CCc3ccccc32)C(c2ccnc3ccccc23)N1c1ccc2[nH]cnc2c1 (centres unmarked) [Compound 121, 1-(1H-Benzoimidazol-5-yl)-4-indan-1-ylimino-5-quinolin-4-yl-imidazolidin-2-one] | 0.4
O=C1N/C(=N\C2CCCCC2O)C(c2ccc3[nH]ccc3c2)N1c1ccc2[nH]cnc2c1 (centres unmarked) [Compound 122, 1-(1H-Benzoimidazol-5-yl)-4-2-hydroxy-cyclohexylimino-5-(1H-indol-5-yl)-imidazolidin-2-one] | 0.4
C/N=C1/NC(=O)N(c2ccc3[nH]cnc3c2)C1c1ccc2c(c1)OCCO2 (centres unmarked) [Compound 123, 1-(1H-Benzoimidazol-5-yl)-5-(2,3-dihydro-benzo1,4dioxin-6-yl)-4-methylimino-imidazolidin-2-one] | 0.4
O=c1c(C2/C(=N/Cc3ccccc3)NC(=S)N2c2ccc3[nH]cnc3c2)coc2ccccc12 (centres unmarked) [Compound 124, 3-{3-(1H-Benzoimidazol-5-yl)-5-benzylimino-2-thioxo-imidazolidin-4-yl}-chromen-4-one] | 3.1
O=C(C/N=C1\NC(=S)N(c2ccc3[nH]cnc3c2)C1c1cc(Br)cc(Br)c1)N1CCSCC1 (centres unmarked) [Compound 125, 2-(1-(1H-benzo[d]imidazol-5-yl)-5-(3,5-dibromophenyl)-2-thioxoimidazolidin-4-ylideneamino)-1-thiomorpholinoethan-one] | 2.2
N#Cc1cccc(/N=C2\NC(=S)N(c3ccc4[nH]cnc4c3)C2c2ccc3c(c2)OCCO3)c1 (centres unmarked) [Compound 126, 3-(1-(1H-benzo[d]imidazol-5-yl)-5-(2,3-dihydrobenzo[b][1,4]dioxin-6-yl)-2-thioxoimidazolidin-4-ylideneamino)benzo-nitrile] | 4.9
Cc1ccc2occ(C3/C(=N/C4CCCCC4O)NC(=O)N3c3ccc4[nH]cnc4c3)c(=O)c2c1 (centres unmarked) [Compound 127, 1-(1H-Benzoimidazol-5-yl)-4-2-hydroxy-cyclohexylimino-5-(6-methyl-4-oxo-4H-chromen-3-yl)-imidazolidin-2-one] | 4
O=C1N/C(=N/Cn2nnc3ccccc32)C(c2ccc(Cl)cc2)N1c1ccc2[nH]cnc2c1 (centres unmarked) [Compound 128, 1-(1H-Benzoimidazol-5-yl)-4-benzotriazol-1-ylmethylimino-5-(4-chloro-phenyl)-imidazolidin-2-one] | 3.1
O=C1N/C(=N\C2CCCC2)C(c2ccc(N3CCCC3)cc2)N1c1ccc2[nH]cnc2c1 (centres unmarked) [Compound 129, 1-(1H-Benzoimidazol-5-yl)-4-cyclopentylimino-5-(4-pyrrolidin-1-yl-phenyl)-imidazolidin-2-one] | 0.004
